{"source": "paper PMC7534330", "about": "“UHPLC-MS/MS method for pharmacokinetic and bioavailability determination of five bioactive components in raw and various processed products of Polygala tenuifolia in rat plasma” (Pharmaceutical Biology, 2020)", "experiment": "Pharmacokinetics of five components in rat plasma after oral administration of RPT, LPT and HPT extracts (UHPLC-MS/MS)", "details": "male, SD, in vivo, 1.9 g/kg, rat plasma, mean ± SD; for AUC(0-t): n = 6, read-out: AUC0-t; for AUC(0-inf): n = 6, read-out: AUC0-∞; for Cmax: n = 6, read-out: Cmax; for MRT last: n = 6, read-out: MRT0-t; for Tmax: n = 6, read-out: Tmax; for half-life: n = 6, read-out: t1/2 (converted)", "procedure": "A Thermo Hypersil Gold C18 column (3.0 × 100 mm, i.d.; 3 μm) was used for chromatographic separation. An aqueous 10 mM ammonium acetate solution (A) and acetonitrile (B) were selected as the mobile phase components. The optimal gradient program involved the following steps: 5% B (0–1 min), changing to 85% B (1–3.5 min), 85% B (3.5–4.0 min), changing to 5% B (4.0–4.1 min) and 5% B (4.1–5.0 min). The flow rate was set to 0.4 mL/min, the autosampler was maintained at 4 °C and the injection volume was 5 μL.\nUHPLC-MS/MS was conducted by an Applied Biosystems (AB) Sciex Exion LC system (Foster City, CA) connected to a 6500 + triple quad tandem mass spectrometer with an electrospray ionization source. All detection and quantifications were carried out in positive multiple reaction monitoring (MRM) mode. The optimized parameters were programmed as follows: ion source temperature, 500 °C; curtain gas pressure, 30 kPa; ion source gas 1 pressure, 55 kPa; ion source gas 2 pressure, 55 kPa; and ion spray voltage, […]. The chemical structures and ion mass spectra of targeted compounds are shown in Figure 1. The precursor ion and product ion were m/z 517.1 → 174.9 for A5, m/z 547.0 → 204.9 for A6, m/z 753.2 → 205.2 for DSS, m/z 681.3 → 443.3 for TFSA, m/z 236.8 → 103.2 for TMCA and m/z 136.9 → 92.9 for IS. All data were acquired by using AB Sciex Analyst software (version 1.6.3).\nAfter thawing the frozen blood samples at room temperature, a 100 μL aliquot of plasma was spiked with 50 μL of the IS working solution in 2 mL EP tubes, and 750 μL of methanol was added into each of the tubes. Then, these tubes were mixed on a multi-tube Vortexer for 0.5 min before centrifugation at 11,800×g for 10 min. Finally, 200 μL of the obtained supernatant was transferred to a fresh autosampler vial, and then 5 μL of the sample was injected for analysis.\nMale SD rats were randomly divided into four groups (n = 6 in each group), including the RPT group, LPT group, HPT group and control group. All oral administration samples were mixed with 0.5% CMC-Na (w/v) and then given to rats at a dose equivalent to 1.9 g/kg of RPT extract. The control group was orally treatment with equal volume of 0.5% CMC-Na solution. After a single administration, all blood samples were collected from the orbital vein into heparinized centrifuge tubes before administration (0 h) and at 0.083, 0.17, 0.25, 0.5, 0.75, 1, 1.5, 2, 3, 5, 8 and 12 h after administration and then centrifuged at 4 °C and 11,800×g for 10 min. The separated supernatant samples were preserved at −80 °C until they were measured.\nThe elementary pharmacokinetic parameters of plasma samples were analyzed by DAS 2.0 pharmacokinetic software. One-way analysis of variance (ANOVA) was used for statistical comparison for pharmacokinetic and interaction studies. A p-value < 0.05 indicated a significant difference. The main parameters considered were as follows: AUC0–∞ (the area under the blood concentration-time curve from zero to infinity initial plasma concentration), MRT (the mean residence time), Cmax (peak plasma concentration) and Tmax (time to reach Cmax for oral dose), t1/2 (elimination half-life) (He et al. [2015]). The absolute bioavailability (F) was evaluated as follows: F(%)=(AUCoral×Dosei.v.)/(AUCi.v.×Doseoral)×100%", "key": {"[1]": {"details": "oral HPT extract equivalent to 1.9 g/kg of RPT extract"}, "[2]": {"details": "oral LPT extract equivalent to 1.9 g/kg of RPT extract"}}, "note": "Where two headings read alike, the source gives them in different places.", "data": [{"compound": "COc1cc(C=CC(=O)O)cc(OC)c1OC", "note": "[TMCA, 3,4,5-trimethoxycinnamic acid]", "values": [{"measurement": "AUC(0-t)", "setting": "[1]", "value": "124 ± 41.3", "unit": "ng·h/mL"}, {"measurement": "AUC(0-inf)", "setting": "[1]", "value": "184 ± 137", "unit": "ng·h/mL"}, {"measurement": "Cmax", "setting": "[1]", "value": "63.2 ± 14.2", "unit": "ng/mL"}, {"measurement": "MRT last", "setting": "[1]", "value": "4.19 ± 0.91", "unit": "h"}, {"measurement": "Tmax", "setting": "[1]", "value": "4.2 ± 1.2", "unit": "min"}, {"measurement": "half-life", "setting": "[1]", "value": "3.73 ± 2.34", "unit": "h"}, {"measurement": "AUC(0-t)", "setting": "[2]", "value": "135 ± 33.4", "unit": "ng·h/mL"}, {"measurement": "AUC(0-inf)", "setting": "[2]", "value": "173 ± 40.4", "unit": "ng·h/mL"}, {"measurement": "Cmax", "setting": "[2]", "value": "80.7 ± 11.1", "unit": "ng/mL"}, {"measurement": "MRT last", "setting": "[2]", "value": "3.56 ± 0.25", "unit": "h"}, {"measurement": "Tmax", "setting": "[2]", "value": "6 ± 2.4", "unit": "min"}, {"measurement": "half-life", "setting": "[2]", "value": "6.82 ± 1.82", "unit": "h"}, {"measurement": "AUC(0-t)", "setting": "oral RPT extract 1.9 g/kg", "value": "91.7 ± 29.1", "unit": "ng·h/mL"}, {"measurement": "AUC(0-inf)", "setting": "oral RPT extract 1.9 g/kg", "value": "132 ± 33.4", "unit": "ng·h/mL"}, {"measurement": "Cmax", "setting": "oral RPT extract 1.9 g/kg", "value": "38.8 ± 13.8", "unit": "ng/mL"}, {"measurement": "MRT last", "setting": "oral RPT extract 1.9 g/kg", "value": "4.37 ± 0.53", "unit": "h"}, {"measurement": "Tmax", "setting": "oral RPT extract 1.9 g/kg", "value": "7.8 ± 3", "unit": "min"}, {"measurement": "half-life", "setting": "oral RPT extract 1.9 g/kg", "value": "6.93 ± 2.96", "unit": "h"}]}]}
